Test results taken from the NIST ThermoML archive (doi:10.1021/je034144f).
Numbers after ± are expanded uncertainties.

Settings: Liquid, Ebulliometric method (Recirculating still)

CC#N [acetonitrile]
Settings | vapor or sublimation pressure [kPa]
277.92 K | 4.323 ± 0.011
278.62 K | 4.49 ± 0.01
281.57 K | 5.247 ± 0.012
285.38 K | 6.385 ± 0.012
287.67 K | 7.165 ± 0.013
290.65 K | 8.296 ± 0.013
292.75 K | 9.182 ± 0.014
295.78 K | 10.6 ± 0.015
300.82 K | 13.37 ± 0.016
303.81 K | 15.27 ± 0.018
309.64 K | 19.64 ± 0.021
315.43 K | 24.97 ± 0.024
321.12 K | 31.31 ± 0.027
325.02 K | 36.39 ± 0.032
331.27 K | 45.91 ± 0.036
336.41 K | 55.17 ± 0.042
341.18 K | 65.07 ± 0.048
345.57 K | 75.44 ± 0.05
349.33 K | 85.31 ± 0.059
352.88 K | 95.59 ± 0.063
354.55 K | 100.75 ± 0.068
354.67 K | 101.12 ± 0.07
357.56 K | 110.61 ± 0.073
360.94 K | 122.63 ± 0.079
361.61 K | 125.13 ± 0.079
368.97 K | 155.33 ± 0.089
371.74 K | 168.12 ± 0.099
373.17 K | 175.04 ± 0.11
378.81 K | 204.59 ± 0.12
384.11 K | 235.79 ± 0.14
394.29 K | 306.28 ± 0.16
405.24 K | 399.5 ± 0.2
415.21 K | 502.67 ± 0.24
423.68 K | 605.6 ± 0.28
431.12 K | 708.99 ± 0.31
437.3 K | 804.86 ± 0.35
443.5 K | 910.82 ± 0.38
449.6 K | 1025.5 ± 0.42
455.74 K | 1152 ± 0.46
461.87 K | 1290.2 ± 0.51
468.37 K | 1450.3 ± 0.55
474.05 K | 1602.6 ± 0.6
479.15 K | 1749.8 ± 0.65
484.77 K | 1923.9 ± 0.7
490.37 K | 2110.8 ± 0.76
495.75 K | 2303.5 ± 0.81
501.48 K | 2523.7 ± 0.88
506.92 K | 2748 ± 0.94
512.61 K | 2999.2 ± 1
518.01 K | 3254.1 ± 1.1
523.15 K | 3512.9 ± 1.1
527.79 K | 3760.4 ± 1.2
532.08 K | 4001.5 ± 1.3
535.03 K | 4174.6 ± 1.3
